In article PMC12564946, “A Stable Delivery System for Meretrix meretrix Derived Immunomodulatory Peptide (QLNWD): Fabrication and Characterization of Glycosylated Protein Nanoparticle” (Marine Drugs, 2025):
Ends that are not written are not given here.

Assay: In vitro release of QLNWD, dialysis bag method in enzyme-free SGF/SIF
Format: in vitro ADME
Conditions: 37 °C, 120 rpm
Experimental: The release profile of QLNWD in NPs was evaluated according to a published dialysis method. A 2 mL aliquot of QLNWD (1 mg/mL) nanoparticle solution was introduced into a presoaked dialysis bag (molecular weight cutoff of 3500 Da). The bag was immersed in 20 mL of simulated gastric fluid (SGF, enzyme-free), which had been preheated at 37 °C for 30 min and adjusted to pH 2. The entire system was incubated at 37 °C under continuous agitation at 120 rpm. After 2 h, the pH was adjusted to 7.0, and 20 mL of simulated intestinal fluid (SIF, enzyme-free), also preheated at 37 °C for 30 min and adjusted to pH 7.0, was added to the system. At predetermined intervals, 1 mL of the release medium was sampled and immediately replenished with an equal volume of fresh SGF/SIF. Samples without QLNWD served as the blank control, and the cumulative release was determined as follows:(2) Cumulative release (%)=(V0Cn+Ve∑1n−1Cn−1)/total QLNWD content×100 where V0 refers to the total volume of simulated gastric or intestinal fluid, Cn refers to the concentration of QLNWD at the nth time, and Ve refers to the volume of each sample.

- Cumulative release of QLNWD (12 h: 2 h enzyme-free SGF pH 2, then enzyme-free SIF pH 7.0, dialysis bag 3500 Da): 79.1%
- Cumulative release of QLNWD (initial 2 h in enzyme-free SGF pH 2, dialysis bag 3500 Da, QLNWD 1 mg/mL): 38.1%
Substance: QLNWD [QLNWD, Gln-Leu-Asn-Trp-Asp]
